From US11548850B2, “Development of a cofilin inhibitor for the treatment of hemorrhagic brain injury-induced neuroinflammation” (The University of Toledo, priority 2019, dated 2023)
Entries after “also recorded” stand apart in the source; their conditions may differ.

Columns and labels:
TNF-α = TNF-α ELISA in LPS-challenged HMC3 cells; type: cell-based, human; conditions: SZ-3 10 μM and 5 μM
Description: (§1) Cultured HMC3 cells were challenged with 0.1 μg/mL of LPS and treated with different concentrations of SZ-3 concurrently. At the end of the experiment cells were harvested for MTT by CellTiter-Glo Luminescent assay (FIG. 9A), Griess assay for NO release (FIG. 9B), and TNF-α by ELISA (FIG. 9C).
After hemorrhage, activated microglia release proinflammatory mediators such as cytokines, chemokines, and nitric oxide (NO) leading to secondary injury which may be worse than the initial insult and may result in severe neurological deficits and death. In order to test whether the synthesized compound will reduce or stop microglial activation and inflammation after hemorrhage, whether the compound poses toxicity to microglia was first assessed. […]
Next, a NO release assay was performed to determine if SZ-3 can reduce the NO release. […] Next, whether the major inflammatory cytokine TNF-α is reduced with the SZ-3 treatment was evaluated. […]
HMC3 cells (30,000 cells/well in a 96-well plate) were stimulated by LPS ([…]), then treated with DMSO or different concentrations of drug 3 h later. The supernatants were collected after 24 h, and the concentrations of TNF-α were measured using enzyme-linked immunosorbent assay (ELISA) according to the kit's instructions (R&D Systems, Inc.).

[1] = tested on: NO release from HMC3 cells; assay: Griess assay for NO release from LPS-challenged HMC3 cells; type: cell-based, human
Description: as §1
(§2) After hemorrhage, activated microglia release proinflammatory mediators such as cytokines, chemokines, and nitric oxide (NO) leading to secondary injury which may be worse than the initial insult and may result in severe neurological deficits and death. In order to test whether the synthesized compound will reduce or stop microglial activation and inflammation after hemorrhage, whether the compound poses toxicity to microglia was first assessed. Human microglial cell line (HMC3) was challenged or activated with lipopolysaccharide (LPS) ([…]) and treated with different concentrations of the SZ-3 (10 and 5 μM) concurrently. CellTiter-Glo luminescent assay was used for cell viability; Griess reagent assay was used for NO release and ELISA was used for TNF-α estimations.
Next, a NO release assay was performed to determine if SZ-3 can reduce the NO release. […] Next, whether the major inflammatory cytokine TNF-α is reduced with the SZ-3 treatment was evaluated. As a consequence of microglial activation, TNF-α levels are increased, and the same pattern was observed when cells were challenged with LPS. There was a significant increase in TNF-α after LPS challenge.
NO was indirectly assayed through the measurement of nitrite by mixing a sample of culture medium with an equal volume of Griess reagent (0.3% naphthylethylenediamine dihydrochloride, 3% sulfanilamide, 8% phosphoric acid) and reading at 540 nm.

SHSY cells [2] = assay: Toxicity of SZ-3 in cultured SHSY cells (MTT); type: cell-based; conditions: different concentrations of SZ-3, 5-20 μM range
Description: (§3) The synthesized SZ-3 compound was tested for neuroprotective properties in cell-based models using a neuroblastoma cell line (SHSY) and thrombin as a stressor. Thrombin was used as a cell death inducer in cell-based models for hemorrhagic brain injury. SHSY cells were challenged by 100 U/ml thrombin and after 3 hrs treated with different concentrations of synthesized compounds. […] Cell death is observed through fluorescence.
(§4) All types of cells used in these examples were assayed for viability and proliferation after 24-72 h using the MTT or CellTiter-Glo Luminescent assay Promega (Madison, Wis.). Cells after treatment were incubated with MTT reagent for 3 h in 5% CO2 at 37° C. The medium was replaced with DMSO to dissolve formazan crystals. Absorbance was read at 570 nm to quantify cell viability. CellTiter-Glo reagents were used in some experiments by adding equal amounts of reagent to the amount of medium containing cells for a 96-well plate. Contents were mixed for 2 minutes then incubated the plate for 10 minutes at room temperature to stabilize luminescent signal.

cofilin [3] = target: cofilin (Homo sapiens, UniProt P23528); assay: In vitro F-actin depolymerization assay; type: biochemical; design: purchased Cytoskeleton, Inc; conditions: SZ-3 5 μM, cofilin 0.25 μM, 30 min, rabbit muscle actin, SiR-actin probe
cofilin (Homo sapiens, UniProt P23528), sequence (P23528 whole entry): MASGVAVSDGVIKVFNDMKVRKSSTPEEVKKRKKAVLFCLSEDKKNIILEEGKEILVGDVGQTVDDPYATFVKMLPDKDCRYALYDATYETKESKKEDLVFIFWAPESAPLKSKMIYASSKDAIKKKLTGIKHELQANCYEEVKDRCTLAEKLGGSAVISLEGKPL
Description: The inhibitory effect of SZ-3 was tested using an F-actin depolymerization assay. Rabbit muscle actin (Cytoskeleton, Inc.) was reconstituted with general actin and incubated on ice for 30 min to depolymerize any existing actin oligomers. Cofilin (Cytoskeleton, Inc.) at 0.25 μM and SZ-3 (5 μM) were added together to the corresponding vials and incubated for 30 min to ensure cofilin depolymerization and efficacy of the SZ-3. SiR-actin probe (Cytoskeleton, Inc.) was added at 50 nM and incubated for 1 h to visualize actin filaments. Finally, 5-10 μl of each group was added to a slide and imaged with fluorescent microscope at 652 nm.
Cofilin inhibition with SZ-3 was tested using an f-actin depolymerization high-throughput screening assay.
SZ-3 inhibitory effect on cofilin was tested using F-actin depolymerization assay. Briefly, rabbit muscle actin (Cytoskeleton, Inc.) was reconstituted with general actin buffer to 40 μM (stock) and incubated on ice for 30 min to depolymerize any existing actin oligomers. Next, actin stock solution was further diluted to a 1 μM working solution and then polymerized into filaments with the addition of 1/10 th the volume of actin polymerization buffer (Cytoskeleton, Inc.). The mix was incubated at room temperature for 1 h to ensure optimum polymerization. […]

phosphocofilin = assay: WB of phosphocofilin in thrombin-challenged HMC3 cells; type: cell-based, human; conditions: thrombin 100 U/ml, SZ-3 10, 5 μM after 3 h, WB after 24 h
Description: (§5) FIG. 11: SZ-3 reduces inflammation through NF-κB mechanism. Cultured HMC3 cells were challenged with thrombin 100 U/ml and after 3 h were treated with different concentrations of SZ-3 (10 and 5 μM). Cells were harvested for WB analysis after 24 h.
(§6) WB was used to assay the expression levels of cofilin, phosphocofilin, and NF-κB. […] Without wishing to be bound by theory, the role of phosphocofilin is not fully understood, but it is believed that it is decreased in stress conditions and its restoration is beneficial.
(§7) HMC3 cells were cultured in DMEM/F12 medium supplemented with 5% horse serum (HS), 10% fetal bovine serum (FBS), and 1% penicillin/streptomycin. Cells were stimulated with 100 U/ml thrombin from bovine plasma (Sigma) and treated without (vehicle) or with different concentrations of SZ-3.
(§8) Cells were harvested and washed with ice-cold lysis buffer (250 mM sucrose, 1.5 mM MgCl2, 10 mM KCl, 20 mM HEPES 7.6 pH, 1 mM of dithiothreitol, 1 mM phenylmethylsulfonyl fluoride, 50 mM NaF, 10 mM sodium orthovanadate, 20 mM sodium pyrophosphate, and protease inhibitors) for 15 min then supplemented with 5% of Nonidet P-40 for 2 min. […] Glyceraldehyde 3-phosphate dehydrogenase (GAPDH) or beta-actin were used as the loading control, and band intensity analyzed using Bio-Rad Chemi-Doc XRS Image Lab Software.

SHSY cells [4] = assay: Thrombin-induced cell death in SHSY cells (MTT); type: cell-based, human; conditions: thrombin 100 U/ml
Description: as §3, §4

HMC3 cells [5] = assay: Cell viability of LPS-challenged HMC3 cells (CellTiter-Glo Luminescent assay); type: cell-based; conditions: LPS 0.1 μg/mL, SZ-3 5-10 μM concurrently
Description: as §1, §2
All types of cells used in these examples were assayed for viability and proliferation after 24-72 h using the MTT or CellTiter-Glo Luminescent assay Promega (Madison, Wis.). Cells after treatment were incubated with MTT reagent for 3 h in 5% CO2 at 37° C. […] Absorbance was read at 570 nm to quantify cell viability. […]

NF-κB = assay: WB of NF-κB in thrombin-challenged HMC3 cells; type: cell-based, human; conditions: thrombin 100 U/ml, SZ-3 10, 5 μM after 3 h, WB after 24 h
Description: as §5, §6, §7, §8

[6] = Solubility of SZ-3 in the mouse study; type: physicochemical
cofilin [7] = assay: WB analysis of cofilin expression in thrombin-challenged SHSY cells; type: cell-based, human; conditions: thrombin 100 U/ml, SZ-3 5 μM after 3 h, WB after 24 h
Description: as §3
as §8, with “min. Cytosolic fraction was collected from the supernatant after centrifugation at 14,000 g for 10 min. Bradford reagent (Bio-Rad Laboratories) was used to determine the protein concentrations, and equal amounts of samples were loaded onto 10-15% SDS-polyacrylamide gels, separated by electrophoresis, and transferred to PVDF membranes.” for “min.”

HMC3 cells [8] = assay: Scratch wound assay (IncuCyte) of microglial migration and proliferation; type: cell-based, human; conditions: LPS 200 ng/ml
Description: HMC3 cells were seeded onto a poly-D-lysine hydrobromidecoated-coated 96-well culture plate and placed overnight in a 37° C. IncuCyte S3. WoundMaker was used to simultaneously create wounds in all wells and then LPS (200 ng/ml) was added to wounded cells except control group. After 3 h cells were treated with DMSO (control) or SZ-3 (5 μM). The wound images were taken at 2 h intervals for 58 h. Data were processed and analyzed by using IncuCyte software.
In response to brain injury, microglia transform into an activated state and migrate to the damaged area. This migration leads to an accumulation of activated microglia around the injury site resulting in vicious cycle of microglial activation and further release of inflammatory cytokines. To elucidate whether SZ-3 can stop or reduce the migration of activated microglial cells towards the injury site, a scratch wound assay was performed. At different time intervals, wound confluence, relative wound, and wound width metrics were assayed to analyze the migration of the microglial cells.
HMC3 cells (30,000 cells/well) were seeded onto a poly-D-lysine hydrobromidecoated-coated 96-well culture plate (corning) and placed overnight in a 37° C. IncuCyte S3 (Essen BioScience) supplied with 5% CO2. WoundMaker (Essen BioScience) was used to simultaneously create wounds in all wells then washed twice with culture medium. LPS (200 ng/ml) was added to wounded cells except control group immediately after the wash. 3 h later cells were treated with DMSO (control) or SZ-3 (5 μM). The wound images were taken at 2 h intervals for 72 h. Data were processed and analyzed by using IncuCyte software.

HMC3 cells [9] = assay: Thrombin-induced cell death in HMC3 cells; type: cell-based, human; conditions: thrombin 100 U/ml, SZ-3 10 μM
Description: as §5, §4

mice with hemorrhage = assay: Experimental hemorrhage in mice by collagenase injection into the striatum; type: in vivo
Description: Mice were subjected to experimental hemorrhage by injecting collagenase into the striatum. After 3 h of collagenase injection, mice were treated with two concentrations of SZ-3 (1 and 10 mg/kg, i.p.) followed by 12 hourly injections until day 3. Mice were evaluated for baseline rotarod and grip strength 24 h prior and after hemorrhage and then after every 24 hs for three days. N=12 per group. FIG. 12A depicts a timeline of the experiment, and photographs of the mice.
The top column is Sham, the second column is vehicle, the third column is SZ-3 (1 mg/kg), and the fourth column is SZ-3 (10 mg/kg).
Finally, it was desired to elucidate if treatment with SZ-3 can mitigate the hemorrhage induced behavioral deficits. Hemorrhage was induced in mice, and the mice were then treated with SZ-3. Mice were subjected to experimental hemorrhage by injecting collagenase into the mice striatum. Collagenase model simulates the hemorrhage by inducing vessel damage resulting in localized hematomas. This model is widely used in hemorrhagic stroke research.
Mice were treated with two concentrations of SZ-3 (1 and 10 mg/kg, i.p;) immediately after 3 h of hemorrhage and then after every 12 h for 3 days (FIG. 12A). […] Normally, the mice are substantially paralyzed a short time after the stroke.

cofilin [10] = assay: WB of cofilin in thrombin-challenged HMC3 cells; type: cell-based, human; conditions: thrombin 100 U/ml
Description: as §5, §6, §7
Cells were harvested and washed with ice-cold lysis buffer (250 mM sucrose, 1.5 mM MgCl2, 10 mM KCl, 20 mM HEPES 7.6 pH, 1 mM of dithiothreitol, 1 mM phenylmethylsulfonyl fluoride, 50 mM NaF, 10 mM sodium orthovanadate, 20 mM sodium pyrophosphate, and protease inhibitors) for 15 min then supplemented with 5% of Nonidet P-40 for 2 min. Cytosolic fraction was collected from the supernatant after centrifugation at 14,000 g for 10 min. Bradford reagent (Bio-Rad Laboratories) was used to determine the protein concentrations, and equal amounts of samples were loaded onto 10-15% SDS-polyacrylamide gels, separated by electrophoresis, and transferred to PVDF membranes. Membranes were blocked and incubated with primary antibodies; cofilin, phosphocofilin, and NF-kB (Cell Signaling Technology) at 4° C. overnight. Membranes were incubated for 1 h at room temperature with horseradish peroxidase-conjugated secondary antibody (1:5000; Jackson ImmunoResearch) after washing. Glyceraldehyde 3-phosphate dehydrogenase (GAPDH) or beta-actin were used as the loading control, and band intensity analyzed using Bio-Rad Chemi-Doc XRS Image Lab Software.

Question: Which results are given for CC(C)(C)c1ccc(O)c(CN(Cc2cc(C(C)(C)C)ccc2O)C2CCC(NC(N)=O)CC2)c1 (centres unmarked) [SZ-3, 4-{bis[(5-tert-butyl-2-hydroxyphenyl)methyl]amino}cyclohexyl urea]?
Answer: TNF-α levels (TNF-α): significantly reduced TNF-α levels; also recorded: significantly reduced NO and TNF-α release; NO release ([1]; LPS 0.1 μg/mL, different concentrations of SZ-3): significantly reduced NO; NO release ([1]; LPS, SZ-3 5 μM, p<0.001): significantly reduced NO release; NO release ([1]; LPS, SZ-3 10 μM): significance was at p<0.01; toxicity in SHSY cells (SHSY cells [2]): did not show any signs of toxicity; also recorded: No toxicity was observed; severing and depolymerizing activity of cofilin on F-actin (cofilin [3]): prevented the severing and depolymerizing activity of cofilin; also recorded: binds to cofilin; phosphocofilin expression level (phosphocofilin): reversed the expression levels; cell death induced by thrombin, best concentration (SHSY cells [4]; SZ-3 10 μM): showing the best effect; cell death induced by thrombin (SHSY cells [4]; SZ-3 20, 10, 5 μM after 3 h, MTT after 24 h): significantly reversed the cell death; also recorded: significantly restored cell death induced by thrombin; toxicity in LPS-challenged HMC3 cells (HMC3 cells [5]): No cell toxicity was observed; NF-κB expression level (NF-κB): significantly reduced; solubility [6]: no solubility issues; cofilin expression (cofilin [7]): significantly reduced cofilin expression; distance between the migrating edges of the wound (wound width) (HMC3 cells [8]; SZ-3 5 μM after 3 h): in between; microglial migration and proliferation (HMC3 cells [8]; SZ-3 5 μM after 3 h): reduces the proliferation and migration of the microglial cells; also recorded: reduced microglial migration and proliferation; confluence of cells within the wound region (HMC3 cells [8]; SZ-3 5 μM after 3 h, first 24 h): less with SZ-3 treated cells relative to non-treated cells; cell density in the wound area relative to outside the wound area (HMC3 cells [8]; SZ-3 5 μM, after the 24 h of treatment): slow increase rate in cell density in the wound area; cell death induced by thrombin (HMC3 cells [9]): significantly restored cell death induced by thrombin; cell death after experimental ICH (mice with hemorrhage; FIG. 13, SZ-3 1 mg/kg and 10 mg/kg versus vehicle, fluorescence): barely any cell death; also recorded: reduces cell death after experimental ICH; motor function assessed by rotarod (mice with hemorrhage; SZ-3 1 and 10 mg/kg i.p. 3 h after hemorrhage then every 12 h for 3 days, day 2 and 3): significantly reversed; grip strength (mice with hemorrhage; SZ-3 1 and 10 mg/kg i.p., after hemorrhage): showed enhanced grip strength; lesions in the mice (mice with hemorrhage; mice treated with SZ-3): no lesions formed; grip of sham mice (mice with hemorrhage; sham mice, no induced hemorrhage): improved the grip of the mice even without hemorrhage; cofilin expression (cofilin [10]; SZ-3 5 μM (FIG. 11 legend)): reduced by treatment with 5 μM of SZ-3; cofilin level (cofilin [10]; SZ-3 10 μM): significant decrease in cofilin level was observed only in 10 μM; cofilin expression level (cofilin [10]; SZ-3 10, 5 μM after 3 h, WB after 24 h): significantly reduced
